Data on two molecules can be found in PMC7284416, “The Product Specificities of Maize Terpene Synthases TPS4 and TPS10 Are Determined Both by Active Site Amino Acids and Residues Adjacent to the Active Site” (Plants, 2020).

The target in data set [1] is T1, TPS4 (tps4-B73) (Zea mays, UniProt Q6JD73).
T1 construct: expressed in E. coli BL21(DE3) from pHIS8-3, N-terminal His8 tag kept, Ni-NTA purified; forward primer starts the ORF at codons for SSTFHPSL, native C-terminus FVEPIPE
T1 sequence (Q6JD73 21-554): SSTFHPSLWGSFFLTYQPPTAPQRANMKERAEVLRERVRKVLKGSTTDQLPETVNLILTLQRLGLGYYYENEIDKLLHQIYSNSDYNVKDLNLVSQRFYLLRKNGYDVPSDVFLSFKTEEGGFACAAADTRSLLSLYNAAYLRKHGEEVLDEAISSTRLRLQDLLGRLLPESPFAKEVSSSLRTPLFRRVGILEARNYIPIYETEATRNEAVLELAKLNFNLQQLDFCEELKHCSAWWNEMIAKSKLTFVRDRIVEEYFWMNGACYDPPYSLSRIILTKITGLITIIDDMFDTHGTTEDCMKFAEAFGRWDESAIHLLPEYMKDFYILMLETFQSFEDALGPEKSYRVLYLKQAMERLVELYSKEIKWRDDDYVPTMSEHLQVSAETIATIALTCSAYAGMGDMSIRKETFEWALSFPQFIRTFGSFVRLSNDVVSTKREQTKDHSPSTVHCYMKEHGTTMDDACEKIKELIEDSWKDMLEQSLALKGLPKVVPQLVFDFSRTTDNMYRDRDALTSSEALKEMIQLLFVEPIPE
The data set is described as follows: [[…]-3H]FPP turnover, pentane-extracted products, scintillation counting. The data set is classed as biochemical. Particulars: 10 mM MgCl2, 10 mM Mopso pH 7.0, 1 mM DTT, 10% glycerol, 30 °C; labelled compound; read-out: TPS4-c17.

In data set [2] the target is T2, TPS4 (tps4-B73) (Zea mays, UniProt Q6JD73, I411F/R442K, form not given).
T2 construct: expressed in E. coli BL21(DE3) from pHIS8-3, N-terminal His8 tag kept, Ni-NTA purified; forward primer starts the ORF at codons for SSTFHPSL, native C-terminus FVEPIPE
T2 sequence (Q6JD73 21-554 I411F/R442K): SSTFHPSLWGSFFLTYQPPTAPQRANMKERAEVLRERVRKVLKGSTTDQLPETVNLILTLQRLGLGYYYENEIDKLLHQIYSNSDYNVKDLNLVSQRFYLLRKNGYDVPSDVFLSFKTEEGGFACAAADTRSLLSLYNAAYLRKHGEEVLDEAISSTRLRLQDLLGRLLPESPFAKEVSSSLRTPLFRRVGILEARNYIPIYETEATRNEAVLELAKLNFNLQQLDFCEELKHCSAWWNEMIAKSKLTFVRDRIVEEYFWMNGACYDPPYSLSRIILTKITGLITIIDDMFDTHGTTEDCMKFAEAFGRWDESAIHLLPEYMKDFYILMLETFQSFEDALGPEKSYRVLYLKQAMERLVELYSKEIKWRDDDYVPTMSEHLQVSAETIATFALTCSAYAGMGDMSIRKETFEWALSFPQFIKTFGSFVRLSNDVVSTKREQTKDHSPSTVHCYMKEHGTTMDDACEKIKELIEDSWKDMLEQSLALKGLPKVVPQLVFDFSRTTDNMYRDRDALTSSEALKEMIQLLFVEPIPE
Described as above. The data set is classed as biochemical. To be noted: 10 mM MgCl2, 10 mM Mopso pH 7.0, 1 mM DTT, 10% glycerol, 30 °C; labelled compound; read-out: TPS4-c17 R442K + I411F.

Data set [3] deals with T3, TPS10 (tps10-B73) (Zea mays, UniProt Q2NM15).
T3 construct: expressed in E. coli BL21(DE3) from pHIS8-3 (NcoI/EcoRI), His tag kept, Ni-NTA purified; printed forward primer codes for MPPPS at the N-terminus
T3 sequence (Q2NM15 1-533): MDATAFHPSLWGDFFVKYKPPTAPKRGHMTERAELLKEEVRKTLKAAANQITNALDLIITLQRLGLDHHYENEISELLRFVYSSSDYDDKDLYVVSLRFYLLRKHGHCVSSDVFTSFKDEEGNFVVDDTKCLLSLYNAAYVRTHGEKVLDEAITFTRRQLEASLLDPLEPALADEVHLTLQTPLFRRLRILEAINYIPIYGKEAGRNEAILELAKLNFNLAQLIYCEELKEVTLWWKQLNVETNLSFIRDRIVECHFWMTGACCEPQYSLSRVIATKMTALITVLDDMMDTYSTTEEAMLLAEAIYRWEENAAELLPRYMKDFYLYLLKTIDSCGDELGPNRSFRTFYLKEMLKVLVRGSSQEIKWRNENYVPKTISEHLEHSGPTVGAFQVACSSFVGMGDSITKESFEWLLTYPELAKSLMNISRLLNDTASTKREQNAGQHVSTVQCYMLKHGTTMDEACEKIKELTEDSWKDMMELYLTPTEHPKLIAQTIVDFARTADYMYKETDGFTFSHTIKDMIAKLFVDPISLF
Described as above. The data set is classed as biochemical. Particulars: 10 mM MgCl2, 10 mM Mopso pH 7.0, 1 mM DTT, 10% glycerol, 30 °C; labelled compound.

Substrate in data set [4]: CC(C)=CCC/C(C)=C/CC/C(C)=C/CO[P@@](=O)(O)OP(=O)(O)O
Briefly: purified protein. The data set is classed as biochemical, Zea mays. Particulars: 10 mM MgCl2, 10 mM Mopso pH 7.0, 1 mM DTT, 10% glycerol, 30 °C, labelled compound.

Turning to `CC(C)=CCC/C(C)=C/CC/C(C)=C/CO[P@@](=O)(O)OP(=O)(O)O` [(E,E)-farnesyl diphosphate], the Km in data set [1] came to 2.1 ± 0.3 µM; in data set [2], 2.3 ± 0.3 µM; in data set [3], 3.2 ± 0.5 µM.

B1: TPS4 (tps4-B73) (Zea mays) (protein)
chain: SSTFHPSLWGSFFLTYQPPTAPQRANMKERAEVLRERVRKVLKGSTTDQLPETVNLILTLQRLGLGYYYENEIDKLLHQIYSNSDYNVKDLNLVSQRFYLLRKNGYDVPSDVFLSFKTEEGGFACAAADTRSLLSLYNAAYLRKHGEEVLDEAISSTRLRLQDLLGRLLPESPFAKEVSSSLRTPLFRRVGILEARNYIPIYETEATRNEAVLELAKLNFNLQQLDFCEELKHCSAWWNEMIAKSKLTFVRDRIVEEYFWMNGACYDPPYSLSRIILTKITGLITIIDDMFDTHGTTEDCMKFAEAFGRWDESAIHLLPEYMKDFYILMLETFQSFEDALGPEKSYRVLYLKQAMERLVELYSKEIKWRDDDYVPTMSEHLQVSAETIATIALTCSAYAGMGDMSIRKETFEWALSFPQFIRTFGSFVRLSNDVVSTKREQTKDHSPSTVHCYMKEHGTTMDDACEKIKELIEDSWKDMLEQSLALKGLPKVVPQLVFDFSRTTDNMYRDRDALTSSEALKEMIQLLFVEPIPE
notes: expressed in E. coli BL21(DE3) from pHIS8-3, N-terminal His8 tag kept, Ni-NTA purified; forward primer starts the ORF at codons for SSTFHPSL, native C-terminus FVEPIPE
On to B1, for which, in data set [4], the Km is recorded as 3.8 ± 0.5 µM and the kcat turned out to be 0.0105 ± 0.0006 s⁻¹.

As a reminder, the kcat is the maximal rate divided by the concentration of active sites.
